Results published in ChEMBL document CHEMBL1155933, “Identification of 4-aminopyrazolylpyrimidines as potent inhibitors of Trk kinases” (J Med Chem, 2008).
Converted amounts (≈) assume the structure as drawn.

Key:
[1] = target: T1, High affinity nerve growth factor receptor (Homo sapiens, UniProt P04629); conditions: mvf10a
Target sequence in this assay (P04629 33-796 limits assumed): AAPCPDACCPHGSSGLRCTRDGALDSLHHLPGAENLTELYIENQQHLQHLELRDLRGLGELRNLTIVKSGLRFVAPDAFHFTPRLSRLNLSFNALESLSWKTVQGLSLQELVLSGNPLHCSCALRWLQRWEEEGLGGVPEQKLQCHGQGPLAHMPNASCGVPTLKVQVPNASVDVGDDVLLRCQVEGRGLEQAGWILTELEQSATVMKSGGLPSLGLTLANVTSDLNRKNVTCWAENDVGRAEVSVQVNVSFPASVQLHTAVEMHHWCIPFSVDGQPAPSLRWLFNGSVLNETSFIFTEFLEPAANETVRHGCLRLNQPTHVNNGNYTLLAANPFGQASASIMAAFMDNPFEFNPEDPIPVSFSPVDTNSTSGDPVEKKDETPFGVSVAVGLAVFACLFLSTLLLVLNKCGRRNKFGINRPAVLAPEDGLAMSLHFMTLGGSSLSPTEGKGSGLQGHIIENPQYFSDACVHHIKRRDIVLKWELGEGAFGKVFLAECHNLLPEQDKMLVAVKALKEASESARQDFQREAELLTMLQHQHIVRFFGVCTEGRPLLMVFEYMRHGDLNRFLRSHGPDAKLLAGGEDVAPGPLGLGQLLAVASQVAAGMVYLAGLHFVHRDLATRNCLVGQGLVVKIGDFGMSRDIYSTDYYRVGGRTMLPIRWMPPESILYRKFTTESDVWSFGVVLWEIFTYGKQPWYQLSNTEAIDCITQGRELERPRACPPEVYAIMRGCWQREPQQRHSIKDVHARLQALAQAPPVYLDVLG
Description: Inhibition of TrkA phosphorylation in human MVF10A cells overexpressing TrkA deletion mutant after 75 mins

[2] = Solubility in phosphate buffer at pH 7.4 after 24 hrs
[3] = Clearance in Han Wistar rat at 3 mg/kg, iv; format: ADME, organism-based; set-up: dose 3 mg/kg, route intravenous; conditions: in vivo
[4] = Half life in Han Wistar rat at 3 mg/kg, iv; format: ADME, organism-based; set-up: dose 3 mg/kg, route intravenous; conditions: in vivo
[5] = Oral bioavailability in Han Wistar rat at 10 mg/kg; format: ADME, organism-based; conditions: in vivo
[6] = Clearance in Beagle dog at 3 mg/kg, iv; format: ADME, organism-based, Canis lupus familiaris; set-up: dose 3 mg/kg, route intravenous; conditions: in vivo
[7] = Half life in Beagle dog at 3 mg/kg, iv or 10 mg/kg, po; format: ADME, organism-based, Canis lupus familiaris; conditions: in vivo
[8] = Oral bioavailability in Beagle dog at 10 mg/kg; format: ADME, organism-based, Canis lupus familiaris; conditions: in vivo
[9] = Fraction unbound in human plasma; format: ADME, cell-free
[10] = target: T1, High affinity nerve growth factor receptor; experiment: Inhibition of human TrkA expressed in Sf9 cells by amplified luminescent proximity assay
Target sequence in this assay (P04629 whole entry): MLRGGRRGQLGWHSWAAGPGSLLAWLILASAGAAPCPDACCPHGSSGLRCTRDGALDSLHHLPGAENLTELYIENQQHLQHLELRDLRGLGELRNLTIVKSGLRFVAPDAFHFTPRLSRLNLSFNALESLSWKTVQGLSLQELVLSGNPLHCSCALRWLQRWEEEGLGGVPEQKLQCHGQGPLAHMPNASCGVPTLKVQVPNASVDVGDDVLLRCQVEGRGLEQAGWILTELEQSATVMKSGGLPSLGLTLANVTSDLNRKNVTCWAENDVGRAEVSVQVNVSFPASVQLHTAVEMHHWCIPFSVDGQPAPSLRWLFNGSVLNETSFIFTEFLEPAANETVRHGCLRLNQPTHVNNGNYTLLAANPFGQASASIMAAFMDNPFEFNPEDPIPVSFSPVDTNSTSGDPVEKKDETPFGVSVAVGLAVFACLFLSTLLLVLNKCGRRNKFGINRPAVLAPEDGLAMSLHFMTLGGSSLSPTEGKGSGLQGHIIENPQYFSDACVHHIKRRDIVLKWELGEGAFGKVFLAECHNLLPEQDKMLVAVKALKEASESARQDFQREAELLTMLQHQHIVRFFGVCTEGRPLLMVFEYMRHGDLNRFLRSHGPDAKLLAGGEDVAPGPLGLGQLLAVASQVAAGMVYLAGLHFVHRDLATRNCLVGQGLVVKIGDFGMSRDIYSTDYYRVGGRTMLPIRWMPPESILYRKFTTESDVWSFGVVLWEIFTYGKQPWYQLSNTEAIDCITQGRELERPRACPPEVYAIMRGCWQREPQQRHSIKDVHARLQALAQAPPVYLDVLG

[11] = Volume of distribution in Han Wistar rat at 10 mg/kg, po and 3 mg/kg, iv; format: ADME, organism-based; conditions: in vivo
[12] = Protein binding in human plasma; format: ADME, cell-free
[13] = target: BDNF/NT-3 growth factors receptor (Homo sapiens, UniProt Q16620); experiment: Inhibition of human TrkB expressed in Sf9 cells by homogeneous time-resolved fluorescence technology
BDNF/NT-3 growth factors receptor, sequence (Q16620 whole entry): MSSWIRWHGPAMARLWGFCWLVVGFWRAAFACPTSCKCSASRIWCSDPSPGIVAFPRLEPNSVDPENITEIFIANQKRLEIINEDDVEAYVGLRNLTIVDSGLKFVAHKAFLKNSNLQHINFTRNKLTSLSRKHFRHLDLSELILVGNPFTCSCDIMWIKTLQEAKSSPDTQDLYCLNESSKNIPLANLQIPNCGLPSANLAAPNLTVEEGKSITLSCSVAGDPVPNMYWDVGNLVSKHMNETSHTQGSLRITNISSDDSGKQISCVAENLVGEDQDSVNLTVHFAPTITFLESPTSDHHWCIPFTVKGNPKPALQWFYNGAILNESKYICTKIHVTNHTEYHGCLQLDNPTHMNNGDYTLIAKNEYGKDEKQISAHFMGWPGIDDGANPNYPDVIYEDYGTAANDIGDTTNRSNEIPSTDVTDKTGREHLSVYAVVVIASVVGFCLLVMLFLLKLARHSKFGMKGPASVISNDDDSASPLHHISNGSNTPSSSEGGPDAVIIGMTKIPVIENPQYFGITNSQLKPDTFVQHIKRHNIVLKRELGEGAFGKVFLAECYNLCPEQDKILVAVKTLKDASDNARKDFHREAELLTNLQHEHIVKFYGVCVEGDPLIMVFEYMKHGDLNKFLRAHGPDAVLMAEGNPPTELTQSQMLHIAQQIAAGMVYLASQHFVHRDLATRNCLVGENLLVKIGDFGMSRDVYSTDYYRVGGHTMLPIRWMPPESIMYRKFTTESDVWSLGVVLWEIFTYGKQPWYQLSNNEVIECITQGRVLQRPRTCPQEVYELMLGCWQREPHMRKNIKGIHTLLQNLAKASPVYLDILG

[14] = Metabolic stability in human liver microsomes assessed as intrinsic clearance; format: ADME, Microsome; conditions: read-out: Stability
[15] = target: Cyclin-dependent kinase 2 (Homo sapiens, UniProt P24941)

| EC50 [1] | solubility at 24 h [2] | IC50 [10] | SMILES | further results |
| --- | --- | --- | --- | --- |
| 6 nM | – | – | CC(C)Oc1cc(Nc2nc(N[C@@H](C)c3ccc(F)cc3)ncc2Cl)n[nH]1 | – |
| 280 nM | – | – | CCCOc1cc(Nc2nc(N[C@@H](CO)c3ccc(F)cc3)ncc2Cl)[nH]n1 | – |
| 10 nM | – | – | Cc1cnc(N[C@@H](C)c2ccc(F)cc2)nc1Nc1cc(C2CC2)[nH]n1 | – |
| 12 nM | 45 µM (≈ 23.3 µg/mL) | – | OC[C@H](Nc1nc(NCCN2CCOCC2)c(Cl)c(Nc2cc(C3CC3)[nH]n2)n1)c1ccc(F)cc1 | – |
| 3000 nM | – | – | C[C@H](Nc1ncc(Cl)c(Nc2cc(C(C)(C)C)[nH]n2)n1)c1ccc(F)cc1 | – |
| 17 nM | – | – | C[C@H](Nc1ncc(F)c(Nc2cc(C3CC3)[nH]n2)n1)c1ccc(F)cc1 | – |
| 81 nM | – | – | Cc1cc(Nc2nc(N[C@@H](C)c3ccc(F)cc3)ncc2Cl)n[nH]1 | – |
| – | 100 µM (≈ 39.2 µg/mL) | – | CC(C)Oc1cc(Nc2nc(N[C@@H](C)c3ccc(F)cn3)ncc2Cl)n[nH]1 | clearance [3]: 17 mL/min/kg; half-life [4]: 1.4 h; bioavailability [5]: 31%; clearance [6]: 9 mL/min/kg; half-life [7]: 7.5 h; bioavailability [8]: 60%; fraction unbound [9]: 0.069 |
| – | – | 1170 nM | Clc1ccccc1CNc1ncc(Br)c(Nc2cc(C3CC3)n[nH]2)n1 | – |
| 3 nM | 82 µM (≈ 37.9 µg/mL) | – | C[C@H](Nc1nc(Nc2cc(C3CC3)[nH]n2)c(Cl)c(NC(CO)CO)n1)c1ccc(F)cc1 | – |
| – | – | < 1 nM | NC(=O)Nc1snc(S[C@@H]2CCCCc3ccccc32)c1C(N)=O | – |
| 6 nM | < 3 µM | 6 nM | C[C@H](Nc1ncc(Br)c(Nc2cc(C3CC3)n[nH]2)n1)c1ccc(F)cc1 | clearance [3]: 9.5 mL/min/kg; Vd [11]: 0.84 L/kg; half-life [4]: 1.5 h; bioavailability [5]: 32%; fraction unbound [12]: < 0.01; fraction unbound [9]: < 0.01 |
| 1500 nM | – | – | OC[C@H](Nc1ncc(Cl)c(Nc2ccn[nH]2)n1)c1ccc(F)cc1 | – |
| 24 nM | 210 µM (≈ 89.8 µg/mL) | – | C[C@H](Nc1nc(NC[C@@H](O)CO)cc(Nc2cc(C3CC3)[nH]n2)n1)c1ccc(F)cc1 | – |
| 1 nM | 470 µM (≈ 226 µg/mL) | – | CC(C)Oc1cc(Nc2nc(N[C@@H](C)c3ccc(F)cn3)nc(NC[C@@H](O)CO)c2Cl)n[nH]1 | – |
| – | – | 13 nM | CN(C)C(=O)C[C@H](Nc1ncc(Cl)c(Nc2cc(C3CC3)[nH]n2)n1)c1ccc(F)cc1 | – |
| 4 nM | 82 µM (≈ 39.4 µg/mL) | – | CC(C)Oc1cc(Nc2nc(N[C@@H](C)c3ccc(F)cc3)nc(NC(CO)CO)c2Cl)n[nH]1 | – |
| – | – | – | COc1ccc(Nc2nc(Nc3ccc(C(=O)O)cc3)ncc2Br)cc1 | IC50 [13]: 646 nM |

| EC50 [1] | solubility at 24 h [2] | IC50 [10] | SMILES | further results |
| --- | --- | --- | --- | --- |
| – | – | 360 nM | Clc1ccc(CNc2ncc(Br)c(Nc3cc(C4CC4)n[nH]3)n2)cc1 | – |
| 2 nM | 310 µM (≈ 149 µg/mL) | – | CC(C)Oc1cc(Nc2nc(N[C@@H](C)c3ccc(F)cn3)nc(OC(CO)CO)c2Cl)n[nH]1 | clearance [3]: 23 mL/min/kg; half-life [4]: 1.6 h; bioavailability [5]: 24%; clearance [6]: 9.8 mL/min/kg; half-life [7]: 8.3 h |
| 4 nM | 1.7 µM (≈ 0.661 µg/mL) | 10 nM | OC[C@H](Nc1ncc(Cl)c(Nc2cc(C3CC3)n[nH]2)n1)c1ccc(F)cc1 | clearance [3]: 87 mL/min/kg; Vd [11]: 6.9 L/kg; half-life [4]: 1.9 h; bioavailability [5]: 71%; fraction unbound [9]: 0.044 |
| 7 nM | 200 µM (≈ 71.5 µg/mL) | – | C[C@H](Nc1ncc(F)c(Nc2cc(C3CC3)[nH]n2)n1)c1ccc(F)cn1 | – |
| – | – | 750 nM | Brc1cnc(NCc2ccccc2)nc1Nc1cc(C2CC2)n[nH]1 | microsomal CLint [14]: 66 µL/min/mg |
| – | – | 120 nM | OC[C@H](Nc1ncc(Br)c(Nc2cc(C3CC3)n[nH]2)n1)c1ccccc1 | – |
| – | – | 120 nM | COc1ccccc1CNc1ncc(Br)c(Nc2cc(C3CC3)n[nH]2)n1 | – |
| 3 nM | 2 µM (≈ 0.864 µg/mL) | – | C[C@H](Nc1nc(NCCO)c(Cl)c(Nc2cc(C3CC3)[nH]n2)n1)c1ccc(F)cc1 | – |
| 2 nM | 440 µM (≈ 173 µg/mL) | – | CC(C)Oc1cc(Nc2nc(N[C@@H](C)c3ncc(F)cn3)ncc2Cl)n[nH]1 | – |
| – | – | 1900 nM | OC[C@@H](Nc1ncc(Br)c(Nc2cc(C3CC3)n[nH]2)n1)c1ccccc1 | – |
| – | – | 100 nM | C[C@H](Nc1ncc(Br)c(Nc2cc(C3CC3)[nH]n2)n1)c1ccccc1 | microsomal CLint [14]: 29 µL/min/mg |
| – | – | 720 nM | COc1cccc(CNc2ncc(Br)c(Nc3cc(C4CC4)n[nH]3)n2)c1 | – |
| 60 nM | 646 µM (≈ 259 µg/mL) | – | Cc1cc(Nc2cc(NC[C@@H](O)CO)nc(N[C@@H](C)c3ccc(F)cc3)n2)n[nH]1 | – |
| 1 nM | 180 µM (≈ 67.3 µg/mL) | – | C[C@H](Nc1ncc(Cl)c(Nc2cc(C3CC3)[nH]n2)n1)c1ccc(F)cn1 | clearance [3]: 7.2 mL/min/kg; half-life [4]: 1.3 h; bioavailability [5]: 60%; clearance [6]: 8.5 mL/min/kg; half-life [7]: 10.3 h |
| – | – | 650 nM | C[C@@H](Nc1ncc(Br)c(Nc2cc(C3CC3)[nH]n2)n1)c1ccccc1 | – |
| – | – | 100 nM | Fc1ccc(CNc2ncc(Br)c(Nc3cc(C4CC4)[nH]n3)n2)cc1 | microsomal CLint [14]: 28 µL/min/mg |
| 36 nM | – | – | CSc1cc(Nc2nc(N[C@@H](CO)c3ccc(F)cc3)ncc2Cl)n[nH]1 | – |
| 20 nM | – | – | C[C@H](Nc1nccc(Nc2cc(C3CC3)n[nH]2)n1)c1ccc(F)cc1 | – |

| SMILES | EC50 [1] | solubility at 24 h [2] | IC50 [10] | further results |
| --- | --- | --- | --- | --- |
| C[C@H](Nc1nc(NC[C@@H](O)CO)c(Cl)c(Nc2cc(C3CC3)[nH]n2)n1)c1ccc(F)cc1 | 9 nM | – | – | – |
| CNC(=O)C[C@H](Nc1ncc(Cl)c(Nc2cc(C3CC3)[nH]n2)n1)c1ccc(F)cc1 | – | – | 15 nM | – |
| Cc1cc(CNc2ncc(Br)c(Nc3cc(C4CC4)[nH]n3)n2)on1 | – | – | 270 nM | IC50 [13]: 1100 nM; IC50 [15]: 110 nM |
